Experiments:
Assay type in all cases: in vivo
[1] = tested on: giant foxtail (Setaria faberi); test: Test A postemergence, giant foxtail; conditions: 0 to 100 scale (0 no effect, 100 complete control)
Procedure, shortened: (§1)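 Ratings of 0–100 (0 no effect, 100 complete control) came from visual comparison with untreated controls after roughly ten days in a greenhouse. Plants in loam soil–sand blend were treated with compound in non-phytotoxic solvent plus surfactant, pre- or postemergence (one- to two-leaf stage).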

[2] = tested on: wheat (Triticum aestivum); test: Test B preemergence, wheat; conditions: Preemergence, scale 0 to 100
Procedure, shortened: (§2)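 Visually scored percent control (0–100) after 13 to 15 days in a greenhouse, following preemergence application of compound formulated with surfactant in a non-phytotoxic solvent to seeds in loam soil/sand.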

[3] = tested on: Italian ryegrass (Lolium multiflorum); test: Test B preemergence, Italian ryegrass; conditions: Preemergence, scale 0 to 100
Procedure, shortened: as §2

corn (Zea mays) [4] = test: Test A postemergence, corn; conditions: 0 to 100 scale (0 no effect, 100 complete control)
Procedure, shortened: as §1

[5] = tested on: wheat (Triticum aestivum); test: Test A postemergence, wheat; conditions: 0 to 100 scale (0 no effect, 100 complete control)
Procedure, shortened: as §1

[6] = tested on: velvetleaf (Abutilon theophrasti); test: Test A postemergence, velvetleaf; conditions: 0 to 100 scale (0 no effect, 100 complete control)
Procedure, shortened: as §1

[7] = tested on: woolly cupgrass (Eriochloa villosa); test: Test B preemergence, woolly cupgrass; conditions: scale 0 to 100
Procedure, shortened: as §2

[8] = tested on: umbrella sedge (Cyperus difformis); test: Test B flooded paddy test, umbrella sedge; conditions: Flood, scale 0 to 100
Procedure, shortened: (§3)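 Rice, umbrella sedge, ducksalad and barnyardgrass at 2-leaf stage; pots flooded to 3 cm, compounds applied into paddy water, depth held throughout. Greenhouse 13 to 15 days, then visual rating vs untreated controls on 0–100 scale (0 no effect, 100 complete control); dash means no test result.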

[9] = tested on: barnyardgrass (Echinochloa crus-galli); test: Test A preemergence, barnyardgrass; conditions: 0 to 100 scale (0 no effect, 100 complete control)
Procedure, shortened: as §1

[10] = tested on: large crabgrass (Digitaria sanguinalis); test: Test A preemergence, large crabgrass; conditions: 0 to 100 scale (0 no effect, 100 complete control)
Procedure, shortened: as §1

[11] = tested on: nightshade (eastern black nightshade, Solanum ptycanthum); test: Test B preemergence, nightshade; conditions: scale 0 to 100
Procedure, shortened: as §2

[12] = tested on: catchweed bedstraw (Galium aparine); test: Test B preemergence, catchweed bedstraw; conditions: scale 0 to 100
Procedure, shortened: as §2

[13] = tested on: cocklebur (Xanthium strumarium); test: Test B preemergence, cocklebur; conditions: scale 0 to 100
Procedure, shortened: as §2

[14] = tested on: pigweed (Amaranthus retroflexus); test: Test A postemergence, pigweed; conditions: 0 to 100 scale (0 no effect, 100 complete control)
Procedure, shortened: as §1

[15] = tested on: Surinam grass (Brachiaria decumbens); test: Test B preemergence, Surinam grass; conditions: Preemergence, scale 0 to 100
Procedure, shortened: as §2

[16] = tested on: lambsquarters (Chenopodium album); test: Test B preemergence, lambsquarters; conditions: scale 0 to 100
Procedure, shortened: as §2

corn (Zea mays) [17] = test: Test A preemergence, corn; conditions: 0 to 100 scale (0 no effect, 100 complete control)
Procedure, shortened: as §1

[18] = tested on: pigweed (Amaranthus retroflexus); test: Test A preemergence, pigweed; conditions: 0 to 100 scale (0 no effect, 100 complete control)
Procedure, shortened: as §1

[19] = tested on: bermudagrass (Cynodon dactylon); test: Test B preemergence, bermudagrass; conditions: scale 0 to 100
Procedure, shortened: as §2

[20] = tested on: barnyardgrass (Echinochloa crus-galli); test: Test B flooded paddy test, barnyardgrass; conditions: Flood
Procedure, shortened: as §3

CC1(C)CC(S(=O)(=O)Cc2c(C(F)(F)C(F)(F)F)nc3n(c2=O)CCCC3)=NO1 [Compound 21]
60: Plant response rating, Foxtail, Giant ([1]; 125 g ai/ha)
30: Plant response rating, Galium ([12]; 62 g ai/ha)
75: Plant response rating, Nightshade ([11]; 62 g ai/ha)
0: Plant response rating, Wheat ([2]; 16 g ai/ha) | Plant response rating, Wheat ([2]; 31 g ai/ha) | Plant response rating, Wheat ([2]; 62 g ai/ha) | Plant response rating, Wheat ([2]; 125 g ai/ha) | Plant response rating, Ryegrass, Italian ([3]; 16 g ai/ha) | Plant response rating, Ryegrass, Italian ([3]; 31 g ai/ha) | Plant response rating, Ryegrass, Italian ([3]; 62 g ai/ha) | Plant response rating, Corn (corn (Zea mays) [4]; 125 g ai/ha) | Plant response rating, Corn (corn (Zea mays) [4]; 500 g ai/ha) | Plant response rating, Wheat ([5]; 125 g ai/ha) | Plant response rating, Velvetleaf ([6]; 125 g ai/ha) | Plant response rating, Sedge, Umbrella ([8]; 62 g ai/ha) | Plant response rating, Sedge, Umbrella ([8]; 250 g ai/ha) | Plant response rating, Galium ([12]; 16 g ai/ha) | Plant response rating, Galium ([12]; 31 g ai/ha) | Plant response rating, Cocklebur ([13]; 16 g ai/ha) | Plant response rating, Cocklebur ([13]; 31 g ai/ha) | Plant response rating, Cocklebur ([13]; 62 g ai/ha) | Plant response rating, Cocklebur ([13]; 125 g ai/ha) | Plant response rating, Pigweed ([14]; 125 g ai/ha) | Plant response rating, Lambsquarters ([16]; 16 g ai/ha) | Plant response rating, Lambsquarters ([16]; 31 g ai/ha) | Plant response rating, Lambsquarters ([16]; 62 g ai/ha) | Plant response rating, Corn (corn (Zea mays) [17]; 125 g ai/ha) | Plant response rating, Corn (corn (Zea mays) [17]; 500 g ai/ha) | Plant response rating, Pigweed ([18]; 125 g ai/ha) | Plant response rating, Barnyardgrass ([20]; 62 g ai/ha, scale 0 to 100) | Plant response rating, Barnyardgrass ([20]; 250 g ai/ha, scale 0 to 100 (0 no effect, 100 complete control))
40: Plant response rating, Ryegrass, Italian ([3]; 125 g ai/ha)
100: Plant response rating, Cupgrass, Woolly ([7]; 16 g ai/ha) | Plant response rating, Cupgrass, Woolly ([7]; 31 g ai/ha) | Plant response rating, Cupgrass, Woolly ([7]; 62 g ai/ha) | Plant response rating, Cupgrass, Woolly ([7]; 125 g ai/ha) | Plant response rating, Barnyardgrass ([9]; 500 g ai/ha) | Plant response rating, Crabgrass, Large ([10]; 500 g ai/ha) | Plant response rating, Surinam Grass ([15]; 125 g ai/ha) | Plant response rating, Pigweed ([18]; 500 g ai/ha) | Plant response rating, Bermudagrass ([19]; 31 g ai/ha) | Plant response rating, Bermudagrass ([19]; 62 g ai/ha) | Plant response rating, Bermudagrass ([19]; 125 g ai/ha)
10: Plant response rating, Velvetleaf ([6]; 500 g ai/ha) | Plant response rating, Pigweed ([14]; 500 g ai/ha)
98: Plant response rating, Lambsquarters ([16]; 125 g ai/ha)
20: Plant response rating, Wheat ([5]; 500 g ai/ha)
90: Plant response rating, Barnyardgrass ([9]; 125 g ai/ha) | Plant response rating, Crabgrass, Large ([10]; 125 g ai/ha) | Plant response rating, Nightshade ([11]; 125 g ai/ha) | Plant response rating, Bermudagrass ([19]; 16 g ai/ha)
70: Plant response rating, Foxtail, Giant ([1]; 500 g ai/ha)
50: Plant response rating, Nightshade ([11]; 16 g ai/ha) | Plant response rating, Nightshade ([11]; 31 g ai/ha) | Plant response rating, Galium ([12]; 125 g ai/ha) | Plant response rating, Surinam Grass ([15]; 16 g ai/ha) | Plant response rating, Surinam Grass ([15]; 31 g ai/ha) | Plant response rating, Surinam Grass ([15]; 62 g ai/ha)
